Test results from patent US20080207632A1, “PROTEIN KINASE INHIBITORS” (SUPERGEN, INC., priority 2006, published 2008).

How the values were obtained:
Format in all cases: cell-based
[1] = tested on: Panc-1 (pancreas); experiment: in vitro cytotoxicity assay (Cell-Titer-Glo), Panc-1; details: Homo sapiens, PANC-1, 96 h; Example 20; 4 days; read-out: Cell-based IC50 values Panc-1
Method: (§1) To evaluate cell killing of cancer cell lines, an in vitro cytotoxicity assay was performed. The tumor cell lines used were purchased from the American Type Culture Collection, and are identified as follows: Panc-1 (pancreas), MiaPaCa-2 (pancreas), MCF-7 (breast), HT-29 (colon), U2-OS (osteosarcoma), OVCAR-3 (ovary), HepG2 (hepatocellular carcinoma) and TT (medullary thyroid). The assay utilized the Cell-Titer-Glo Non-Radioactive Cell Proliferation Assay (Promega Corp., Madison, Wis.). First the cells were cultured in RPMI 1640 medium (Cat# 21870-076, Invitrogen Corporation) supplemented with 300 mg/L L-glutamine, 100 units/ml penicillin, 100 μg/ml streptomycin and 10% fetal bovine serum. All the cell lines were incubated in a humidified incubator at 37° C. with 5% CO2 atmosphere.
(§2) Cells were plated at a density of 2000 to 10000 cells per well, depending on their growth rate, in 0.09 mL medium on day 0 in 96-well Microlite TCT microtiter plates (7418, Thermo Labsystems, Franklin, Mass.). On day 1, 10 μL of serial dilutions of the individual compounds were added to the plates in replicates of 3. After incubation for 4 days at 37° C. in a humidified incubator, the cells were lysed in the Cell-Titer-Glo reagent, which also contains luciferase enzyme. The luciferase reaction utilizes ATP released from lysed cells to produce light, the intensity of which is linearly related to the amount of ATP. Thus, the amount of light produced is a reflection of the number of cells remaining in the well after drug treatment. This luminescence was measured using a Luminoskan luminometer (Thermo Electron Corp., Vantaa, Finland) Data were expressed as the percentage of survival of control cells calculated from the luminescence corrected for background. The surviving percent of cells was determined by dividing the mean luminescence values of the treated wells by the mean luminescence values of the control and multiplying by 100.
as §1, with “Briefly,” for “To evaluate cell killing of cancer cell lines, an in vitro cytotoxicity assay was performed. The”, “thyroid), PC-3 (prostate) and A549 (lung).” for “thyroid).”
as §1, with “carcinoma), PC-3 (prostate),” for “carcinoma)”, “A549 (lung).” for “TT (medullary thyroid).”
(§3) Cells were plated at a density of 2000 to 10000 cells per well, depending on their growth rate, in 0.09 mL medium on day 0 in 96-well Microlite TCT microtiter plates (#7418, Thermo Labsystems, Franklin, Mass.). On day 1, 10 μL of serial dilutions of the individual compounds were added to the plates in replicates of 3. After incubation for 4 days at 37° C. in a humidified incubator, the cells were lysed in the Cell-Titer-Glo reagent, which also contains luciferase enzyme. […]

[2] = tested on: HT-29 (colon); experiment: in vitro cytotoxicity assay (Cell-Titer-Glo), HT-29; details: Homo sapiens, HT-29, 96 h; Example 20; 4 days; read-out: Cell-based IC50 values HT-29
Method: as §1, §2
as §1, with “Briefly,” for “To evaluate cell killing of cancer cell lines, an in vitro cytotoxicity assay was performed. The”, “thyroid), PC-3 (prostate) and A549 (lung).” for “thyroid).”
as §1, with “carcinoma), PC-3 (prostate),” for “carcinoma)”, “A549 (lung).” for “TT (medullary thyroid).”
as §3

[3] = tested on: PC-3 (prostate); experiment: in vitro cytotoxicity assay (Cell-Titer-Glo), PC-3; details: 96 h; Example 20; 4 days; read-out: Cell-based IC50 values PC-3
Method: as §1, with “Briefly,” for “To evaluate cell killing of cancer cell lines, an in vitro cytotoxicity assay was performed. The”, “thyroid), PC-3 (prostate) and A549 (lung).” for “thyroid).”
as §2
as §1, with “carcinoma), PC-3 (prostate),” for “carcinoma)”, “A549 (lung).” for “TT (medullary thyroid).”
as §2, with “(#7418,” for “(7418,”, “100. […]” for “100.”

[4] = tested on: MCF-7 (breast); experiment: in vitro cytotoxicity assay (Cell-Titer-Glo), MCF-7; details: Homo sapiens, MCF7, 96 h; Example 20; 4 days; read-out: Cell-based IC50 values MCF-7
Method: as §1, §2
as §1, with “Briefly,” for “To evaluate cell killing of cancer cell lines, an in vitro cytotoxicity assay was performed. The”, “thyroid), PC-3 (prostate) and A549 (lung).” for “thyroid).”
as §1, with “carcinoma), PC-3 (prostate),” for “carcinoma)”, “A549 (lung).” for “TT (medullary thyroid).”
as §3

[5] = tested on: U2-OS (osteosarcoma); experiment: in vitro cytotoxicity assay (Cell-Titer-Glo), U2-OS; details: Homo sapiens, U2OS, 96 h; Example 20; 4 days; read-out: Cell-based IC50 values U2-Os
Method: as §1, §2
as §1, with “Briefly,” for “To evaluate cell killing of cancer cell lines, an in vitro cytotoxicity assay was performed. The”, “thyroid), PC-3 (prostate) and A549 (lung).” for “thyroid).”
as §1, with “carcinoma), PC-3 (prostate),” for “carcinoma)”, “A549 (lung).” for “TT (medullary thyroid).”
as §3

[6] = tested on: A549 (lung); experiment: in vitro cytotoxicity assay (Cell-Titer-Glo), A549; details: Homo sapiens, A549, 96 h; Example 20; 4 days; read-out: Cell-based IC50 values A549
Method: as §1, with “Briefly,” for “To evaluate cell killing of cancer cell lines, an in vitro cytotoxicity assay was performed. The”, “thyroid), PC-3 (prostate) and A549 (lung).” for “thyroid).”
as §2
as §1, with “carcinoma), PC-3 (prostate),” for “carcinoma)”, “A549 (lung).” for “TT (medullary thyroid).”
as §2, with “(#7418,” for “(7418,”, “100. […]” for “100.”

[7] = tested on: MiaPaCa-2 (pancreas); experiment: in vitro cytotoxicity assay (Cell-Titer-Glo), MiaPaCa-2; details: Homo sapiens, MIA PaCa-2, 96 h; Example 20; 4 days; read-out: Cell-based IC50 values MiaPaCa-2
Method: as §1, §2
as §1, with “Briefly,” for “To evaluate cell killing of cancer cell lines, an in vitro cytotoxicity assay was performed. The”, “thyroid), PC-3 (prostate) and A549 (lung).” for “thyroid).”
as §1, with “carcinoma), PC-3 (prostate),” for “carcinoma)”, “A549 (lung).” for “TT (medullary thyroid).”
as §3

| Compound | IC50 [1] | IC50 [2] | IC50 [3] | IC50 [4] | IC50 [5] | IC50 [6] | IC50 [7] |
| --- | --- | --- | --- | --- | --- | --- | --- |
| COc1cc2[nH]c3ncnc(N4CCN(C(=S)Nc5ccc(NC(=O)C6CC6)cc5)CC4)c3c2cc1OC [Compound 1-34] | 125 µM | 138 µM | 21.9 µM | 76.9 µM | 27 µM | 186 µM | 9.82 µM |
| COc1cc2[nH]c3ncnc(N4CCN(C(=S)Nc5ccc(S(N)(=O)=O)cc5)CC4)c3c2cc1OC [Compound 1-107] | 300 µM | > 300 µM | 2.33 µM | > 300 µM | 8.7 µM | 51.5 µM | 107 µM |
